Laboratory results from publication PMC3334764, “Effect of fluid loading during hypovolaemic shock on caspofungin pharmacokinetic parameters in pig” (Critical Care, 2011).
Where two headings read alike, the source gives them in different places. Marks after values point to notes of the source that are not given here.

Legend:
[1] = healthy humans, single dose of 70 mg, cited from earlier work
Protocol: In the early clinical development program for caspofungin, a target concentration of 1 μg/mL was used as a guide for concentrations likely to be efficacious. This target was determined on the basis of in vitro susceptibility test results and was selected as the concentration that exceeded the minimal inhibitory concentration at which 90% of Candida spp. isolates were inhibited.

[2] = Lung tissue caspofungin concentration and tissue-to-plasma ratio in pigs; assay type: in vivo; details: pig
Protocol: (§1) In the shock group (n = 12), the animals were bled through the carotid catheter (Figure 1). Blood withdrawal was started at a rate of 0.8 to 1 mL/kg/minute and continued until all three of the following end points were achieved: MAP of 40 to 45 mmHg, decrease in CI greater than 40% and SVO2 lower than 30%. End points were maintained for a period of 120 minutes by means of further bleeding. During the four-hour resuscitation period, the animals received isotonic saline at a rate of 2 mL/kg/minute. The infusions were stopped when the CI reached 90% of the baseline value and SVO2 was above 50%, and the infusions were then adjusted to keep these parameters constant until the animals were killed. At the beginning of the resuscitation period, the animals received a one-hour intravenous infusion of 70 mg of caspofungin acetate (Cancidas; Merck Sharp & Dohme-Chibret, Paris, France) diluted in 50 mL of saline, which was injected into the right atrium through the proximal lumen of the pulmonary arterial catheter via a pump-driven syringe. A second group of animals (n = 16) used as controls was anaesthetised and ventilated, but they were not subjected to bleeding and fluid loading. These animals were also killed four hours after the start of the caspofungin infusion.
EDTA-blood samples were drawn through a dedicated arterial catheter just before and 15, 30, 60 and 90 minutes and 2 hours, 3 hours and 4 hours after the caspofungin infusions were started in both groups. Then the animals were immediately killed, and lung tissue samples (2 cm × 2 cm × 2 cm) were surgically removed from nondependent parts of both the lower and upper lobes after sternotomy. Plasma was obtained by blood centrifugation at 1,500 g for 15 minutes. Plasma and lung samples were immediately stored at -80°C. The remaining lung tissues were used for the determination of extravascular lung water indexed to body weight (EVLWI) by using a gravimetric method as previously described. Caspofungin acetate was kindly provided by Merck Sharp & Dohme-Chibret. Plasma and lung caspofungin concentrations were determined by using a validated high-performance liquid chromatography method with fluorescence detection after a solid-phase extraction (Bond Elut™ column; Agilent Technologies, Santa Clara, CA, USA). Caspofungin and the internal standard (IS) propranolol were separated on a LiChrospher column (100 RP-8e (5 μm); Merck Chemicals KGaA, Darmstadt, Germany) using a mobile phase consisting of acetonitrile and 0.1% trifluoroacetic acid buffer (200:300 vol/vol) at a flow rate of 1 mL/minute. The retention times were 6 and 22 minutes for IS and caspofungin, respectively. The linearity range was 0.3 to 7.5 mg/L (r^2 > 0.998). The lower limit of quantification, defined as the lowest concentration that could be determined with a relative error and precision (relative standard deviation) less than 20%, was 0.3 μg/mL. […] The maximal concentration (Cmax) was measured at the end of the infusion.
Lung samples were weighed (200 ± 150 mg), homogenised with a 1.5-mL saline solution, ground for 15 minutes and centrifuged twice at 10,000 rpm for 10 minutes. […] Lung caspofungin concentrations (Ct) were determined four hours after starting the caspofungin infusion and are expressed as micrograms per gram of lung tissue. The tissue-to-plasma ratio for each group was calculated as R = (Ct/Cp) × 100, where Cp is the caspofungin plasma concentration at four hours.

[3] = Two-compartment population pharmacokinetic analysis (Monolix) of plasma caspofungin in pigs; assay type: in vivo; details: pig; for Q (intercompartmental clearance) / V1 (central volume of distribution) / V2 (peripheral volume of distribution) / clearance: two-compartment population estimate; for clearance: 70 mg one-hour iv infusion, read-out: CL (central elimination clearance) (converted)
Protocol: (§2) The AUC from zero to four hours (AUC0→4 hours) was determined using the trapezoidal rule. The concentration vs time data for both groups were modelled using the population approach method implemented in Monolix version 3.1 release 2 software. A two-compartment mammillary model was developed and parameterised in terms of central volume of distribution of caspofungin (V1) and elimination clearance of caspofungin (CL), peripheral volume of distribution of caspofungin (V2) and intercompartmental clearance of caspofungin (Q). The total apparent volume of distribution of caspofungin (Vd) was calculated as V1 + V2. The interindividual variability (ω) for each parameter and the residual variability of the model (σ) were estimated.

[4] = surgical ICU patients; 24-hour trough plasma concentration; cited from earlier work
From the text: The pharmacokinetics of caspofungin have been recently studied in a cohort of surgical ICU patients. […] Therefore, the authors concluded that a dose adjustment may be necessary in some ICU patients, based on the monitoring of plasma conc ...

[5] = Caspofungin plasma pharmacokinetics in anaesthetised, ventilated pigs (shock vs control); assay type: in vivo; details: pig, 70 mg one-hour iv infusion; for level at 4 h / AUC(0-t): iv, 70 mg; for level at 4 h: four hours after start of infusion, read-out: Cp (caspofungin plasma concentration at four hours); for AUC(0-t): unit as printed in abstract, read-out: area under curve (AUC) from zero to four hours
Protocol: as §1
EDTA-blood samples were drawn through a dedicated arterial catheter just before and 15, 30, 60 and 90 minutes and 2 hours, 3 hours and 4 hours after the caspofungin infusions were started in both groups. Then the animals were immediately killed, and lung tissue samples (2 cm × 2 cm × 2 cm) were surgically removed from nondependent parts of both the lower and upper lobes after sternotomy. Plasma was obtained by blood centrifugation at 1,500 g for 15 minutes. Plasma and lung samples were immediately stored at -80°C. The remaining lung tissues were used for the determination of extravascular lung water indexed to body weight (EVLWI) by using a gravimetric method as previously described. Caspofungin acetate was kindly provided by Merck Sharp & Dohme-Chibret. Plasma and lung caspofungin concentrations were determined by using a validated high-performance liquid chromatography method with fluorescence detection after a solid-phase extraction (Bond Elut™ column; Agilent Technologies, Santa Clara, CA, USA). Caspofungin and the internal standard (IS) propranolol were separated on a LiChrospher column (100 RP-8e (5 μm); Merck Chemicals KGaA, Darmstadt, Germany) using a mobile phase consisting of acetonitrile and 0.1% trifluoroacetic acid buffer (200:300 vol/vol) at a flow rate of 1 mL/minute. The retention times were 6 and 22 minutes for IS and caspofungin, respectively. The linearity range was 0.3 to 7.5 mg/L (r^2 > 0.998). The lower limit of quantification, defined as the lowest concentration that could be determined with a relative error and precision (relative standard deviation) less than 20%, was 0.3 μg/mL. Intraday and interday levels of interassay precision were 1.91% and 4.84% (0.5 μg/mL), 6.94% and 10.4% (3 μg/mL) and 7.84% and 12% (5 μg/mL) for serum samples. The maximal concentration (Cmax) was measured at the end of the infusion.
as §2

CC[C@H](C)C[C@H](C)CCCCCCCCC(=O)N[C@H]1C[C@@H](O)[C@@H](NCCN)NC(=O)[C@@H]2[C@@H](O)CCN2C(=O)[C@H]([C@H](O)CCN)NC(=O)[C@H]([C@H](O)[C@@H](O)c2ccc(O)cc2)NC(=O)[C@@H]2C[C@@H](O)CN2C(=O)[C@H]([C@@H](C)O)NC1=O [caspofungin, caspofungin acetate]
concentration at 24 hours (trough concentration) ([1]; mean (95% confidence interval, 1.18 to 1.71)): 1420 ng/mL | mean plasma Cmax ([1]; mean (95% confidence interval, 10.87 to 13.33)): 12040 ng/mL | Ct (lung caspofungin concentration at four hours) ([2]; control group (n = 16), 70 mg one-hour iv infusion, lung homogenate, four sampled lobes averaged, HPLC with fluorescence detection, median): 1.64 µg/g | Ratio = (Ct/Cp) × 100 (lung tissue-to-plasma ratio) ([2]; control group (n = 16), four hours after start of infusion, median): 7.28% | tissue level at time at 4 h ([2]; shock group (n = 12), 70 mg one-hour iv infusion, lung homogenate, four sampled lobes averaged, HPLC with fluorescence detection, median, read-out: Ct (lung caspofungin concentration at four hours)): 1220 ng/g | Ratio = (Ct/Cp) × 100 (lung tissue-to-plasma ratio) ([2]; shock group (n = 12), four hours after start of infusion, median): 7.76% | median lung caspofungin concentration lower in the shock group than in the control group ([2]; shock vs control group, four hours after start of infusion): 25% | Q (intercompartmental clearance) ([3]; control group (n = 16)): 4.23 L/h | V1 (central volume of distribution) ([3]; control group (n = 16)): 0.98 L | V2 (peripheral volume of distribution) ([3]; control group (n = 16)): 1.43 L | clearance ([3]; plasma, iv, 70 mg, control group (n = 16)): 4.83 mL/min | clearance ([3]; plasma, iv, 70 mg, shock group (n = 12)): 3.5 mL/min | Q (intercompartmental clearance) ([3]; shock group (n = 12)): 8.16* L/hour | V1 (central volume of distribution) ([3]; shock group (n = 12)): 0.96 L | V2 (peripheral volume of distribution) ([3]; shock group (n = 12)): 2.8* L | Vd ([3]; plasma, iv, 70 mg, shock group (n = 12), calculated as V1 + V2, read-out: Vd (total apparent volume of distribution)): 3.9 L | patients in whom the trough concentration at day 2 of treatment exceeded 1.0 μg/mL [4]: 75% | Cmax (maximum caspofungin plasma concentration) ([5]; control group (n = 16), no haemorrhage, measured at end of infusion, HPLC with fluorescence detection, median): 33100 ng/mL | level at 4 h ([5]; plasma, control group (n = 16), median): 20700 ng/mL | AUC(0-t) ([5]; plasma, control group, median): 80800 ng·h/mL | level at 4 h ([5]; plasma, shock group (n = 12), median): 16100 ng/mL | AUC(0-t) ([5]; plasma, shock group, median): 60300 ng·h/mL | median AUC0→4 hours lower in the shock group than in the control group ([5]; shock vs control group): 25% | median maximal plasma concentration lower in the shock group than in the control group ([5]; shock vs control group): 35% | Cmax ([5]; plasma, shock group (n = 12), hypovolaemic shock then saline fluid loading, measured at end of infusion, HPLC with fluorescence detection, median, read-out: Cmax (maximum caspofungin plasma concentration)): 21600 ng/mL
